According to patent US20260200849A1, “CATIONIC LIPIDS AND PREPARATION METHOD THEREOF” (RiboX Therapeutics HK Limited, priority 2024, published 2026):

Assays:
[1] = system: Hep G2 cells; test: In vitro toxicity: Hep G2 cell viability by CellTiter-Glo; assay type: cell-based; details: Formulation No. 001, RNA No. 331, 1 μg/mL RNA-LNPs, 72 hours post transfection, cell only = 100%
Procedure: 2E5 Hep G2 cells were transfected with 1 μg/mL RNA-LNPs. At 72 hours post transfection, cell viability (2-well repeat) was determined with the CellTiter-Glo® reagent kit, according to the kit protocol, measured by a luminometer. Cell only as control (100%).
The cell viability was calculated according to the following formula: […]

[2] = system: C57BL/6J mice; test: In vivo expression by IV, 1.0 mg/kg luciferase RNA-LNPs, whole-body and organ IVIS luminescence; details: Formulation No. 001, RNA No. 331; male C57BL/6J mice, 1.0 mg*kg−1 intravenous, 24-hours post injection
Procedure: (§1) 6-8 week old, male C57BL/6J mice (N=3) were injected with 1.0 mg*kg−1 of RNA-LNPs encoding for firefly-luciferase by intravenous injection. At 24-hours post injection, animals were intraperitoneally injected with 15 mg/ml of Luciferin substrate and whole-body/liver/spleen/kidney/small intestine/large intestine luminescence were determined by a bioluminescent in vivo imaging system (IVIS).
as §1, with “mg/nil” for “mg/ml”

[3] = RNA encapsulation efficacy (EE %) by Quant-IT Ribogreen kit; assay type: physicochemical; details: LNP, Formulation No. 001, RNA No. 331
Procedure: (§2) The LNP size and polydispersity index (PDI), determined by dynamic light scattering (DLS), and zeta potential were measured by a Zetasizer machine (Malvern). RNA concentration and encapsulation efficacy (EE %) were analyzed by the Quant-IT Ribogreen kit by calculating the percentage encapsulation at 100%—(RNA-LNPs/RNA-LNPs with Triton X-100).

[4] = system: Hep G2 cells; test: In vitro expression: luciferase activity in Hep G2 cells transfected with RNA-LNPs; assay type: cell-based; details: Formulation No. 001, RNA No. 331 (firefly-luciferase), 100 ng/mL RNA-LNPs, 72 hours post transfection
Procedure: 2E5 Hep G2 cells were transfected with 100 ng/mL of RNA-LNPs encoding for firefly-luciferase. At 72 hours post transfection, the cells were washed and lysed. The luciferase expression (2-well repeat) was determined in the cell lysates with the luciferase assay reagent kit (Promega), according to the kit protocol, luciferase activity was measured by a luminometer.

[5] = LNP size and polydispersity index (PDI) by dynamic light scattering (Zetasizer); assay type: physicochemical; details: for Size (nm): Formulation No. 001 (Ionizable lipid:DSPC:cholesterol:DMG-PEG2000 = 50:10:38.5:1.5, N/P 6), RNA No. 331; for PDI: Formulation No. 001, RNA No. 331
Procedure: as §2

[6] = system: Balb/c mice; test: In vivo expression by IV, 0.05 mg/kg luciferase RNA-LNPs, IVIS luminescence; details: Formulation No. 001, RNA No. 331; female Balb/c mice, 0.05 mg*kg−1 intravenous, 24-hours post injection
Procedure: (§3) 7-8 week old, female Balb/c mice (N=3) were injected with 0.05 mg*kg−1 of RNA-LNPs encoding for firefly-luciferase by intravenous injection. At 24- and 72-hours post injection, animals were intraperitoneally injected with 15 mg/mi of Luciferin substrate and whole-body luminescence was determined by a bioluminescent in vivo imaging system (IVIS).
as §3, with “24-hours” for “24- and 72-hours”, “mg/ml” for “mg/mi”, “whole-body/liver/spleen” for “whole-body”

[7] = system: MCP-1; test: In vivo tolerability by IV: serum MCP-1 by Luminex; parameters: species or system C57BL/6J mice; details: Formulation No. 001, RNA No. 331, male C57BL/6J mice, 1.0 mg*kg/1 intravenous; for MCP-1 at 2 h: 2 hours post injection; for MCP-1 at 24 h: 24 hours post injection
Procedure: (§4) 6-8 week old, male C57BL/6J mice (N=3) were injected with 1.0 mg*kg/1 of RNA-LNPs encoding for firefly-luciferase by intravenous injection. At 2- and 24-hours post injection, about 40 μL blood was harvested and immediately added to the procoagulant containing tube. Stand for 30 min at room temperature and then centrifuged at 2500 g×10 min to obtain serum. About 15 μL serum samples were aliquoted for cytokine (MCP-1 and IL-6) detection by Luminex (ProcartaPlex Mouse 2-plex, Thermo). PBS group as negative control.
as §4, with “mg*kg−1” for “mg*kg/1”

[8] = system: IL-6; test: In vivo tolerability by IV: serum IL-6 by Luminex; parameters: species or system C57BL/6J mice; details: Formulation No. 001, RNA No. 331, male C57BL/6J mice, 1.0 mg*kg/1 intravenous; for IL-6 at 2 h: 2 hours post injection; for IL-6 at 24 h: 24 hours post injection
Procedure: as §4
as §4, with “mg*kg−1” for “mg*kg/1”

Structure (SMILES) | In vitro cell viability (%) (Mean) [1] | Kidney (p/s) [2] [p/s] | Large intestine (p/s) [2] [p/s] | Liver (p/s) [2] [p/s] | Small intestine (p/s) [2] [p/s] | Spleen (p/s) [2] [p/s] | Whole body (p/s) [2] [p/s] | EE (%) [3] [%] | In vitro Expression (Mean) [4] | Size (nm) [5] [nm] | PDI [5] | Liver (p/s) (Mean) [6] | Spleen (p/s) (Mean) [6] | Whole body (p/s) (Mean) [6] | MCP-1 at 2 h [7] [pg/mL] | MCP-1 at 24 h [7] [pg/mL] | IL-6 at 2 h [8] [pg/mL] | IL-6 at 24 h [8] [pg/mL]
CCCCCCCC/C=C\CCCCCCCC(=O)NC(COC(=O)NCCN1CCCCC1)C(=O)OCCCCCCCC(=O)OC(CCCCCCCC)CCCCCCCC (stereo not drawn) [Lipid 736] | 73.49 | 5.22E+07 | 1.78E+08 | 2.87E+09 | 6.48E+08 | 3.38E+08 | 5.28E+09 | 91.61 | 7.05E+05 | 66.29 | 0.01 | 2.87E+08 | 1.39E+08 | 2.08E+09 | 3830 | 260 | 442 | 3.03
CCCCCCCC/C=C\CCCCCCCC(=O)NC(COC(=O)NCCN1CCCCC1)C(=O)OCCCCCC(=O)OCC(CCCCCCCC)CCCCCCCCCC (stereo not drawn) [Lipid 792] | 81.74 | 3.20E+07 | 8.04E+07 | 2.74E+09 | 5.01E+08 | 3.20E+08 | 2.76E+09 | 92.11 | 8.10E+05 | 64.18 | 0.02 | 2.90E+08 | 1.01E+08 | 2.18E+09 | 1620 | 216 | 25.9 | 6.86
CCCCC/C=C\C/C=C\CCCCCCCCOC(=O)NC(COC(=O)NCCN1CCCCCC1)C(=O)OCCCCCCCC(=O)OC(CCCCCCCC)CCCCCCCC (stereo not drawn) [Lipid 858] | 92.44 | 2.31E+07 | 1.58E+08 | 8.64E+08 | 6.45E+08 | 2.33E+08 | 1.92E+09 | 91.60 | 2.88E+05 | 63.50 | 0.04 | 3.71E+08 | 6.61E+07 | 8.74E+08 | 1360 | 111 | 23 | 3.13
CCCCC/C=C\C/C=C\CCCCCCCCOC(=O)NC(COC(=O)NCCN1CCCCCC1)C(=O)OCCCCCCCCOC(=O)C(CCCCCC)CCCCCCCC (stereo not drawn) [Lipid 881] | 86.94 | 4.26E+07 | 1.30E+08 | 1.65E+09 | 8.57E+08 | 2.37E+08 | 2.92E+09 | 90.26 | 4.02E+05 | 61.73 | 0.02 | 2.25E+08 | 6.14E+07 | 1.18E+09 | 1190 | 253 | 12.8 | 6.69
CCCCCCCCC(CCCCCC)C(=O)OCCCCCCCCOC(=O)NC(COC(=O)NCCN(C)C)C(=O)OCCCCCCCCOC(=O)C(CCCCCC)CCCCCCCC (stereo not drawn) [Lipid 883] | 93.23 | 6.37E+06 | 3.50E+07 | 3.22E+09 | 1.46E+08 | 2.19E+08 | 1.65E+09 | 96.96 | 2.82E+05 | 69.88 | 0.05 | 1.59E+08 | 2.09E+07 | 1.60E+09 | 1860 | 220 | 16.4 | 5.01
CCCCCCCCC(CCCCCC)C(=O)OCCCCCCCCOC(=O)NC(COC(=O)NCCN1CCCCCC1)C(=O)OCCCCCCCCOC(=O)C(CCCCCC)CCCCCCCC (stereo not drawn) [Lipid 889] | 91.21 | 3.47E+07 | 2.12E+08 | 5.79E+09 | 1.04E+09 | 2.95E+08 | 3.48E+09 | 95.41 | 2.46E+05 | 61.64 | 0.02 | 1.70E+08 | 8.56E+07 | 1.04E+09 | 760 | 286 | 7.62 | 4.69
CCCCC/C=C\C/C=C\CCCCCCCCOC(=O)NC(COC(=O)NCCNC)C(=O)OCCCCCC(=O)OCC(CCCCCCCC)CCCCCCCCCC (stereo not drawn) [Lipid 907] | 97.33 | 5.43E+06 | 3.94E+07 | 1.91E+08 | 3.03E+08 | 5.98E+07 | 8.99E+08 | 98.30 | 2.56E+04 | 83.82 | 0.02 | 1.46E+08 | 3.43E+07 | 1.18E+09 | 1020 | 81.5 | 14 | 2.35
CCCCCCCCCCCOC(=O)NC(COC(=O)NCCN1CCCCC1)C(=O)OCCCCCCCC(=O)OC(CCCCCCCC)CCCCCCCC (stereo not drawn) [Lipid 914] | 79.98 | 1.72E+07 | 4.60E+07 | 1.75E+09 | 4.42E+08 | 2.11E+08 | 2.46E+09 | 87.49 | 1.56E+06 | 70.33 | 0.04 | 3.77E+08 | 5.60E+07 | 1.19E+09 | 452 | 148 | 4.6 | 2.77
